Experimental data as given in patent publication US10918624B2, “Anti-cancer azole compounds” (Imam Abdulrahman Bin Faisal University, priority 2019, dated 2021).
Entries after “also recorded” stand apart in the source; their conditions may differ.

Key:
HCT-116 cells [1] = assay: Cancer cell morphology (inverted microscope); format: cell-based, human; conditions: for cancer cell morphology change: 48 hours, HCT-116; for microscopic evaluation of treated cancer cells (overall): HCT-116, versus control
From the text: Three samples were examined from each experiment.

HCT-116 cells [2] = assay: Cancer cells viability by MTT assay; conditions: for cancer cell viability (% of control) / effect on cancer cells survivability (in words): 48 hrs; for cancer cell viability (% of control) / effect on cancer cells survivability (in words) / attenuating cancer cells proliferation (in words): HCT-116; for effect on cancer cells survivability (in words): 100, 500 and 750 ug/mL; for dose dependence of effect on cancer cell survivability: HCT-116, FIG. 11
Experimental: HCT-116 cells were grown as previously described method by Khan et al. [“Fluorescent magnetic submicronic polymer (FMSP) nanoparticles induce cell death in human colorectal carcinoma cells” Artif Cells Nanomed Biotechnol. (2018 Jul. 25) 1-7, doi: 10.1080/21691401.2018.1491476]. In brief, HCT-116 cells were grown in the DMEM, 10% fetal bovine serum, L-glutamine, selenium chloride, penicillin, and streptomycin. The cells were culture in incubator (Heracell 150i, Thermo-scientific, USA) containing 5% CO2 at 37°. Finally, confluence cells were seeded into 96-well cell plates and once the cells become 80% confluence, the cancer cells were treated with different concentrations (100 μg/mL, 500 μg/mL and 750 μg/mL) of BG-(Tri)2, BG-(ATri)2, BG-(Atet)2, BG-(Imi)2, BG-(H3PO4)2, respectively. Thereafter, the treated cancer cells were microscopically monitored after 24 hrs and 48 hrs intervals. Three samples were examined from each experiment.
The effects of BG-(Tri)2, BG-(ATri)2, BG-(Atet)2, BG-(Imi)2, BG-(H3PO4)2 on cancer cells were determined by MTT assay. The cancer cells were seeded with 6×10^4 cells/mL in 96-well culture plates containing DMEM, 10% Fetal bovine serum, penicillin, and streptomycin and were incubated in CO2 incubator till they become 80% confluence. Then, cancer cells were treated with BG-(Tri)2, BG-(ATri)2, BG-(Atet)2, BG-(Imi)2, BG-(H3PO4)2 at concentrations of 100 μg/mL, 500 μg/mL and 750 μg/mL, respectively. […] MTT (5.0 mg/mL) solution was added in each well and cells were again incubated for 4 hrs in the CO2 incubator and finally media was changed with the addition of DMSO. The color intensity of each sample was measured using an ELISA plate reader (Biotek Instruments, USA) at wavelength 570 nm.
The following formula was used to calculate percentage of cell viability: % of Cell viability=Optical density (O.D) of BG-(Tri)2,BG-(ATri)2,BG-(Atet)2,BG-(Imi)2,BG-(H3PO4)2 cells/Optical density (O.D) of control cells×100 Statistical Analysis:
The mean±standard deviation (SD) from control and BG-(Tri)2, BG-(ATri)2, BG-(Atet)2, BG-(Imi)2, BG-(H3PO4)2 treated groups were calculated. All statistical analyses were completed with GraphPad Prism 6 (GraphPad Software). The difference between control and BG-(Tri)2, BG-(ATri)2, BG-(Atet)2, BG-(Imi)2, BG-(H3PO4)2 groups by a one-way ANOVA test (P<0.05). P<0.05 was considered as statistically significant.

[3] = Thermogravimetric analyses (TGA); format: physicochemical; conditions: 25° C. to 700° C., 10° C. min, nitrogen
Experimental: TGA were carried on Perkin-Elmer, simultaneous thermal analyzer (STA6000, PerkinElmer, Ohio, USA). TGA data of azole-BG samples were obtained at temperature in the range of 25° C. to 700° C. at the rate of 10° C. min under inert nitrogen flowing at a rate of 20 mL/min.

Row | Structure (SMILES) | cancer cell morphology change (HCT-116 cells [1]; 100 μg/mL) | cancer cell morphology change (HCT-116 cells [1]; 500 μg/mL) | cancer cell morphology change (HCT-116 cells [1]; 750 μg/mL) | microscopic evaluation of treated cancer cells (overall) (HCT-116 cells [1]) | cancer cell viability (% of control) (HCT-116 cells [2]; 100 ug/mL) [%] | cancer cell viability (% of control) (HCT-116 cells [2]; 500 ug/mL) [%] | cancer cell viability (% of control) (HCT-116 cells [2]; 750 ug/mL) [%] | effect on cancer cells survivability (in words) (HCT-116 cells [2]) | attenuating cancer cells proliferation (in words) (HCT-116 cells [2]) | dose dependence of effect on cancer cell survivability (HCT-116 cells [2]) | cancer cell morphology change (HCT-116 cells [1]; 500 μg/mL, listed as BG-(ATet)2) | cancer cell morphology change (HCT-116 cells [1]; 750 μg/mL, listed as BG-(ATet)2) | cancer cell morphology change (HCT-116 cells [1]; 500 μg/mL, listed as BG-(H3PO4)) | cancer cell morphology change (HCT-116 cells [1]; 750 μg/mL, listed as BG-(H3PO4)) | temperature of weight loss / degradation by TGA [3]
1 | OC(COCCCCOCC(O)Cn1ccnc1)Cn1ccnc1 (stereo not drawn) [BG-(Imi)2] | strong nucleus condensation and nuclear augmentation | further nucleus condensation and augmentation; also recorded: nuclear condensation and augmentation | significant loss of cell population; also recorded: strong nuclear condensation and augmentation and showed the beginning of cell membrane disruption | not only affected the cancer cell membrane, but also induced nuclear condensation, augmentation and disintegration | 25 | 21.87 | 18.75 | most profound effects on the cancer cells; also recorded: profound effects on cancer cells survivability | highly effective in attenuating cancer cells proliferation | dose dependent effects on cancer cell survivability |  |  |  |  | 
2 | OC(CNc1ncn[nH]1)COCCCCOCC(O)CNc1ncn[nH]1 (stereo not drawn) [BG-(ATri)2] | significant levels of nucleus condensation and nuclear augmentation | nuclear condensation and augmentation | Significant loss of cell population; also recorded: strong nuclear condensation and augmentation and showed the beginning of cell membrane disruption | not only affected the cancer cell membrane, but also induced nuclear condensation, augmentation and disintegration | 28.12 | 25.62 | 24.68 | most profound effects on the cancer cells; also recorded: profound effects on cancer cells survivability | highly effective in attenuating cancer cells proliferation | dose dependent effects on cancer cell survivability |  |  |  |  | 
3 | OC(CNc1nnn[nH]1)COCCCCOCC(O)CNc1nnn[nH]1 (stereo not drawn) [BG-(Atet)2] | strong nucleus condensation and nuclear augmentation | Further nucleus condensation and augmentation | significant loss of cell population | not only affected the cancer cell membrane, but also induced nuclear condensation, augmentation and disintegration | 25 | 22.50 | 18.75 | most profound effects on the cancer cells; also recorded: profound effects on cancer cells survivability | highly effective in attenuating cancer cells proliferation | dose dependent effects on cancer cell survivability | nuclear condensation and augmentation | strong nuclear condensation and augmentation and showed the beginning of cell membrane disruption |  |  | 
4 | OC(COCCCCOCC(O)Cn1cncn1)Cn1cncn1 (stereo not drawn) [BG-(Tri)2] | moderate levels of nucleus condensation and nuclear augmentation | Strong nuclear condensation and augmentation and the beginning of cell membrane disruption | significant loss of cell population; also recorded: nuclear condensation and augmentation | not only affected the cancer cell membrane, but also induced nuclear condensation, augmentation and disintegration | 75 | 26.86 | 21.87 | most profound effects on the cancer cells; also recorded: profound effects on cancer cells survivability | highly effective in attenuating cancer cells proliferation | dose dependent effects on cancer cell survivability |  |  |  |  | 
5 | O=P(O)(O)OCC(O)COCCCCOCC(O)COP(=O)(O)O (stereo not drawn) [BG-(H3PO4)2] | disintegrations of cancer cells | strong nuclear condensation and augmentation | strong nuclear condensation and augmentation | not only affected the cancer cell membrane, but also induced nuclear condensation, augmentation and disintegration | 85.31 | 55.93 | 53.12 | profound effects on cancer cells survivability |  | dose dependent effects on cancer cell survivability |  |  | nuclear condensation and augmentation | strong nuclear condensation and augmentation and showed the beginning of cell membrane disruption | Above 200 °C
